# Patent publication US7498404B2, “Compositions, methods and uses for a novel family of peptides” (priority 2004, dated 2009)
# Marks after values point to notes of the source that are not given here.
# Assays:
# carboxypeptidase Y = target: T1, carboxypeptidase Y (Saccharomyces cerevisiae, UniProt P00729)
# T1 sequence (P00729 112-532): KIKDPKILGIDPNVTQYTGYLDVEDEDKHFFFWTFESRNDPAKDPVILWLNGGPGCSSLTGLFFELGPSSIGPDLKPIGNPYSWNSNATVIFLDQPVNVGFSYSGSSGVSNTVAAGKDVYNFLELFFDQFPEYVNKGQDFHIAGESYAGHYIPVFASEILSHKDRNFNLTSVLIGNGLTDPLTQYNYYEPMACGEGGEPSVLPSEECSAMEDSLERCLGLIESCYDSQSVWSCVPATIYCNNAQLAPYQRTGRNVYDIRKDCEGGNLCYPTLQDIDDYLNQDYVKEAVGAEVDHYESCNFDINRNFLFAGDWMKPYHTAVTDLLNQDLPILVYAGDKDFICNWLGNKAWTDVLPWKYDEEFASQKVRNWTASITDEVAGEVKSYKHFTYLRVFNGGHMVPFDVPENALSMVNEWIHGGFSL
# S. cerevisiae = assay: Antifungal MIC; type: cell-based
# straight run broilers [1] = assay: Growth promoting Studies 2-1 and 2-2, mash feed, batteries; type: in vivo, chicken
# Method: Briefly, the peptide was used in a semi-purified form to study the growth and feed conversion of […] old straight run broilers in batteries (Studies 2-1 and 2-2). Two amounts were tested against a feed control, peptide at 6 ppm and peptide at 12 ppm, 12 repetitions were carried out per treatment with 4 birds per pen. The diet used in the study was as follows.
# Gram-positive bacteria = assay: MIC against Gram-positive bacteria; type: cell-based; details: most Gram (+)
# Method: (§1) MIC determination assays. Staphylococcal aureus was grown to mid-log phase in LB at 37° C., and diluted by 500-fold with fresh LB and dispensed into 96-well micro-titer plates. Different concentrations of peptides were added, and the micro-titer plates were incubated at 37° C. with shaking. A minimal inhibition concentration (MIC) was determined as the lowest peptide concentration that produced a clear well. All experiments were performed in triplicates, and highly consistent MICs were obtained.
# (§2) For Gram (−) the following were the antimicrobial activities observed: E. coli: MIC>20 microgram/ml; Pseudomonas and Salmonella: MIC>100 microgram/ml.
# food-producing animals = assay: Growth promotion in food-producing animals (overall statement); type: in vivo, chicken
# Source text: Furthermore, unlike conventional antibiotics, the present invention may target the bacterial membrane, and there is currently not a drug target that can be altered with one or two mutations to allow development of drug resistance. […] Alternatively, but in no way limiting the present invention, the present invention may be used as an animal-use only antibiotic for bacterial infections. Also, to date, there has been no observed decrease in the growth promoting activity of the peptide.
# Pseudomonas = assay: MIC against Pseudomonas; type: cell-based
# Method: as §1, §2
# [2] = Broiler floor pen trial, 42 days, natural colibacillosis challenge; type: in vivo, chicken
# Method: A broiler floor pen trial to compare the performance of a new anti-microbial designated for this project as BT1583 alone and in combination with the widely used coccidiostat monensin (MON) to MON fed alone, MON in combination with the also widely used antimicrobial Bacitracin MD (BMD) and BMD alone.
# The following levels of each treatment were evaluated:
# The study design included 10 pens per treatment and 40 birds per pen housed on day of hatch. Two basal corn-soy based diets of decreasing protein (approximately 23 to 20%) and increasing metabolizable energy (approximately 1400 to 1455 kcal/lb) were used from Day 0 to 21 (starter feed) and Days 22 to 42 (grower feed), respectively. Treatment premixes were measured and blended into diets at required levels. Between days 0 and 21 mortality was less than 1% with all birds growing optimally and of high health across all groups.
# Beginning on study day 22, the study director modulated house temperature and air flow to mimic industry conditions conducive to outbreaks of colibacillosis within naive broiler flocks. This was done to stimulate a natural challenge for this study. Mortality climbed to a house average of approximately 10% by Day 42. A majority of these deaths occurred in groups not receiving BT1583 or MON. Lesions were consistent with those of colibacillosis (air sac, pneumonia, peri-hepatitis, peri-carditis and extreme morbidity). All mortality was documented (weight at death and post-mortem observations). All birds and feeds were weighed at 42 days. All remaining birds were euthanized on Day 42 by asphyxiation with the carcasses submitted for rendering.
# The following variables were tested: Response Variables: Gain Per Bird, Feed Per Gain, Mortality (%), Adjusted Feed Per Gain. F test from One Way ANOVA with one blocking factor=location, at Day 42 using 0.05 level of significance.
# All Response Variables: LSD T-test procedure for pair-wise comparisons with Type 1 error of means when ANOVA F ratio is significant, overall significance level of 0.05 used. Lines below means (see Table 30, below) indicate groups with insignificant differences in means.
# Adjusted Feed/Gain: The total weight of mortality in each pen was added to the final live weight, that value reduced by subtracting the initial weight and then dividing that value into the Total feed consumed to calculate the Adjusted Feed/Gain.
# Broiler Chicken [3] = assay: Growth promoting Studies 4-1 and 4-2 with direct coccidial challenge; type: in vivo
# Tetrahymena = assay: Anti-protozoal MIC; type: cell-based
# Broiler Chicken [4] = assay: Growth promoting Studies 1-1 and 1-2 (21-day battery study); type: in vivo
# straight run broilers [5] = assay: Growth promoting Studies 3-1 and 3-2, pelleted starter feed, batteries; type: in vivo, chicken
# Source text: Eight (8) study repetitions per treatment were used, again with 4 birds per pen.
# Salmonella = assay: MIC against Salmonella; type: cell-based
# Method: as §1, §2
# E. coli = assay: MIC against E. coli; type: cell-based
# Method: as §1, §2
# [6] = type: physicochemical
# [7] = MON 99 ppm, BT1583 12 ppm, BMD 55 ppm, alone or combined
# [8] = Study 4-1, 24 ppm with direct coccidial challenge
# [9] = Study 4-2, 48 ppm with direct coccidial challenge
# [10] = Study 3-2, 12 ppm with Coban (vs Coban alone)
substance,measurement,setting,value
Me2Bmt-L-dO-I-V-V-dK-V-dL-K-dY-L-Vol [BT1583],cleavage by carboxypeptidase Y,carboxypeptidase Y,resistant
same,MIC,S. cerevisiae,50 microgram/ml
same,Additional weight gain (%),"straight run broilers [1]; Study 2-1, 6 ppm",6.7%
same,Feed conversion improvement (point),"straight run broilers [1]; Study 2-1, 6 ppm",9 point
same,Additional weight gain (%),"straight run broilers [1]; Study 2-2, 12 ppm",11%
same,Feed conversion improvement (point),"straight run broilers [1]; Study 2-2, 12 ppm",10 point
same,"20-day cumulative weight gain, Mean","straight run broilers [1]; Table 9, 6 ppm in feed",591.9750
same,"20-day cumulative weight gain, Mean","straight run broilers [1]; Table 9, 12 ppm in feed",618.9340
same,"20-day cumulative weight gain, estimated marginal Mean","straight run broilers [1]; Table 11, 6 ppm in feed",591.975
same,"20-day cumulative weight gain, estimated marginal Mean","straight run broilers [1]; Table 11, 12 ppm in feed",618.934
same,"20-day cumulative weight gain, Duncan homogeneous subsets","straight run broilers [1]; Table 12, 6 ppm in feed",591.9750
same,"20-day cumulative weight gain, Duncan homogeneous subsets","straight run broilers [1]; Table 12, 12 ppm in feed",618.9340
same,"20-day cumulative feed conversion rate, Mean","straight run broilers [1]; Table 13, 6 ppm in feed",1.5065
same,"20-day cumulative feed conversion rate, Mean","straight run broilers [1]; Table 13, 12 ppm in feed",1.4959
same,"20-day cumulative feed conversion rate, estimated marginal Mean","straight run broilers [1]; Table 15, 6 ppm in feed",1.506
same,"20-day cumulative feed conversion rate, estimated marginal Mean","straight run broilers [1]; Table 15, 12 ppm in feed",1.496
same,"20-day cumulative feed conversion rate, Duncan homogeneous subsets","straight run broilers [1]; Table 16, 6 ppm in feed",1.5065
same,"20-day cumulative feed conversion rate, Duncan homogeneous subsets","straight run broilers [1]; Table 16, 12 ppm in feed",1.4959
same,MIC,Gram-positive bacteria,1 microgram/ml
same,feed conversion improvement,food-producing animals,about 10 points
same,MIC,Pseudomonas,> 100 microgram/ml
same,efficacy against colibacillosis,"[2]; 3 to 4 week old naive broiler chickens, simulated commercial conditions",highly effective
same,feed/gain advantage over monensin and BMD fed alone and in combination,[2]; Day 42,≥ 10 point
same,weight gain advantage over monensin and BMD fed alone and in combination,[2]; Day 42,≥ 20 point
same,Day 42 Feed/Gain,[2]; [7],1.722^ab
same,Day 42 Gain/Bird,[2]; [7],4.333^ab lb
same,Day 42 Mortality (%),"[2]; acute and chronic colibacillosis, MON 99 ppm, BT1583 12 ppm, BMD 55 ppm",2.75^a %
same,Day 42 Adjusted Feed/Gain,"[2]; adjusted for mortality weight, MON 99 ppm, BT1583 12 ppm, BMD 55 ppm",1.704^ab
same,Additional weight gain (%),Broiler Chicken [3]; [8],7.1%
same,Feed conversion improvement (point),Broiler Chicken [3]; [8],13 point
same,Additional weight gain (%),Broiler Chicken [3]; [9],9.3%
same,Feed conversion improvement (point),Broiler Chicken [3]; [9],17 point
same,MIC,Tetrahymena,25 microgram/ml
same,Additional weight gain (%),"Broiler Chicken [4]; Study 1-1, 10 ppm",17%
same,Feed conversion improvement (point),"Broiler Chicken [4]; Study 1-1, 10 ppm",7 point
same,Additional weight gain (%),"Broiler Chicken [4]; Study 1-2, 30 ppm",17%
same,Feed conversion improvement (point),"Broiler Chicken [4]; Study 1-2, 30 ppm",8 point
same,Additional weight gain (%),"straight run broilers [5]; Study 3-1, 12 ppm",16%
same,Feed conversion improvement (point),"straight run broilers [5]; Study 3-1, 12 ppm",9 point
same,Additional weight gain (%),straight run broilers [5]; [10],5.4%
same,Feed conversion improvement (point),straight run broilers [5]; [10],9 point
same,"20-day cumulative weight gain, Mean","straight run broilers [5]; Table 18, BT1583 12 ppm, BMD 50 ppm, COB 90 ppm, alone or combined",831.7396
same,"21-day cumulative weight gain, estimated marginal Mean","straight run broilers [5]; Table 20, BT1583 12 ppm, BMD 50 ppm, COB 90 ppm, alone or combined",831.740
same,"21-day cumulative weight gain, Duncan homogeneous subsets","straight run broilers [5]; Table 21, BT1583 12 ppm, BMD 50 ppm, COB 90 ppm, alone or combined",831.7396
same,"20-day cumulative feed conversion rate, Mean","straight run broilers [5]; Table 22, BT1583 12 ppm, BMD 50 ppm, COB 90 ppm, alone or combined",1.3308
same,"21-day cumulative feed conversion rate, estimated marginal Mean","straight run broilers [5]; Table 24, BT1583 12 ppm, BMD 50 ppm, COB 90 ppm, alone or combined",1.331
same,"20-day cumulative feed conversion rate, Duncan homogeneous subsets","straight run broilers [5]; Table 25, BT1583 12 ppm, BMD 50 ppm, COB 90 ppm, alone or combined",1.3308
same,MIC,Salmonella,> 100 microgram/ml
same,MIC,E. coli,> 20 microgram/ml
same,only known in vitro method to inactivate,[6],pH 1.0 plus 100 °C overnight
